Literature values in patent US12667557B2, “Method for treating EGFR-TKI-resistant non-small cell lung cancer by administration of anti-HER3 antibody-drug conjugate” (priority 2017, dated 2026).

Biological target: T1, topoisomerase I (Homo sapiens, UniProt P11387)
T1 sequence (P11387 1-765): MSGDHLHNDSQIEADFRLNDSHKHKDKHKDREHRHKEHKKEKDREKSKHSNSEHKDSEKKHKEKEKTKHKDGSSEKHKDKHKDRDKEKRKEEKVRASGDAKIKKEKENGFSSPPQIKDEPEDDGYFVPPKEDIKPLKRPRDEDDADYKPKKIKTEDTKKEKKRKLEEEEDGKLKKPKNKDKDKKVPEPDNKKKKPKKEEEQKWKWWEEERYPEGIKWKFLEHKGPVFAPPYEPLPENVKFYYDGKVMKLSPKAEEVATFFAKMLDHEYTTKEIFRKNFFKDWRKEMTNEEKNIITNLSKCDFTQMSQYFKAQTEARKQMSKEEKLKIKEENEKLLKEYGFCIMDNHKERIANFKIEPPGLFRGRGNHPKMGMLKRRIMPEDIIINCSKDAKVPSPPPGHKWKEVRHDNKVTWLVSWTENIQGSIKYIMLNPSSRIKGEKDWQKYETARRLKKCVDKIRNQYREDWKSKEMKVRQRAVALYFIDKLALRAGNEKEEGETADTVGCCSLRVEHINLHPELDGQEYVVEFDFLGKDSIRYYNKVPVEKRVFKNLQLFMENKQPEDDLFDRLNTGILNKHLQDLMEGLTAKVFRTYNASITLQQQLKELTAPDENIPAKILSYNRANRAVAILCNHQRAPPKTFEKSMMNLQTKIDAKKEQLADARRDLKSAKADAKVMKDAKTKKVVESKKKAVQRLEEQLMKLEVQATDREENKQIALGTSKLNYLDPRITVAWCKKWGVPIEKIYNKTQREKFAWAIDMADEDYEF
Conditions: Ogitani Y. et al., Clinical Cancer Research, 2016; 22(20):5097-5108; cited from earlier work

CC[C@@]1(O)C(=O)OCc2c1cc1n(c2=O)Cc2c-1nc1cc(F)c(C)c3c1c2[C@@H](NC(=O)CO)CC3
topoisomerase I inhibitory activity: confirmed to have a topoisomerase I inhibitory activity
